The source of these data is patent US9925222B2, “Gut barrier dysfunction treatment and prevention” (ALBERT EINSTEIN COLLEGE OF MEDICINE OF YESHIVA UNIVERSITY, priority 2012, dated 2018).

Data set [1] deals with Tnf-α, Zo-1 and E-cad mRNA expression in gut epithelium. Briefly: Ex vivo treatment of gut mucosa with OLA, rescue with indole and IPA, qPCR. The class given is cell-based. Particulars: OLA 5 mg/ml, 3 h ex vivo; all mice genotypes. How it is done:
Freshly isolated gut mucosa were incubated in the presence of OLA (5 mg/ml) for 3 h at 37° C., 5% CO2 (13). After 3 h of OLA treatment, enterocytes were isolated and pooled for RNA isolation. […] Experiments were performed at least two independent times. OLA has […] (log P), thus is unsuitable for in vivo studies of luminal bacterial enzyme inhibition (Pubchem, ST093573). 2.0 μg of total RNA extracted from pooled apical enterocytes with TRIzolR (Invitrogen), were reverse transcribed with random hexamer primers and SuperScriptTM III-RT enzyme (Invitrogen). Quantitative PCR (qPCR) reactions using TaqMan universal PCR master mix and TaqMan probes containing FAM as the 5' reporter fluorochrome and tetramethylrhodamine (MGB) as the 3' quencher fluorochrome, were performed in triplicate for each sample and analyzed on the ABI Prism 7900HT system. Primers and minor groove binder/non-fluorescent quencher probes used for PCR amplification were obtained from Applied Biosystems as well as the following assays on demand: […] Controls include RT-minus RNA samples. PCR reaction conditions for all assays were set at 50° C. for 2 minutes, 95° C. for 10 minutes, followed by 40 cycles of amplification (95° C. for 15 seconds then 60° C. for 1 minute).

The conditions of data set [2]: Pubchem, ST093573; cited from earlier work.

As to `NC(CC1C(=O)Nc2ccccc21)C(=O)O` [OLA, Oxindolyl L-alanine], in data set [1], the “Enterocyte Tnf-α mRNA expression after OLA” value is given as “enhanced enterocyte Tnf-α mRNA expression”; the “Expression of junctional regulators (Zo-1 and E-cad) after OLA” value was “diminished expression of junctional regulators”. For the same molecule, in data set [2], the “Predicted oral bioavailability (log P)” value is given as “high”.
